Consider 3 molecules from US10799605B2 (3B PHARMACEUTICALS GMBH, priority 2014, dated 2020).

In one series the target is NTR1 (Homo sapiens (Human), UniProt P30989). The experiment in a line: Functional Ca2+ mobilisation assay (example part I). The series is classed as cell-based. The source says: Ca^2+ ions are usually kept at nanomolar levels in the cytosol of cells, and act in a number of signal transduction pathways as second messengers. […] Changes in calcium ion concentration in standard assay protocols can be readily detected with fluorescent dyes that emit light when changes in intracellular Ca^2+ ion concentration occur. Given the transient nature of these responses, they are often read with instrumentation that has ‘inject and read’ capability.
HT29 or NTR1-expressing HEK293 cells were trypsinized and seeded into black flat clear-bottom 96-well plates (Corning, Amsterdam, The Netherlands) at […] cells per well. After 24 h incubation at 37° C. and 5% CO2, cells were washed twice with wash buffer (130 mM NaCl, 5 mM KCl, 10 mM Hepes, 2 mM CaCl2, 10 mM Glucose, pH 7.4) and loaded with 100 μl of Ca5 dye (Molecular Devices, Biberach, Germany) for 1 h at 37° C. and 5% CO2. For agonist assays, serial dilutions of agonistic substances were added to the cells loaded with dye and the change of the fluorescent signal was recorded continually for approx. 90 s using a FlexStation II (Molecular Devices, Biberach, Germany). Addition of wash buffer served as a control. Thus, EC50 concentrations for each conjugate were computed and provided a measure for the potency of the substance. For antagonist assays, cells loaded with 100 μl of Ca5-dye were pre-incubated with serial dilutions of antagonistic substances for 30 min, before the EC80-concentration of agonist was added to the cells and the change of the fluorescent signal was recorded continually for approx. 90 s. Thus, IC50 concentrations were computed for each conjugate and provided a measure for the inhibitory activity of the conjugates at the NTR1.
(A change in cytosolic calcium serves as a functional read-out for many receptors and channels.)

In another series the test system is HT29 cells. The settings on record: HT29 cells, 48 h, LDH in supernatant.
The conditions of series [1]: in vivo; cited from earlier work.
Another series concerns the target T1, CCR1 (h) (Homo sapiens (Human), UniProt P32246).
T1 sequence (P32246 whole entry, looked up): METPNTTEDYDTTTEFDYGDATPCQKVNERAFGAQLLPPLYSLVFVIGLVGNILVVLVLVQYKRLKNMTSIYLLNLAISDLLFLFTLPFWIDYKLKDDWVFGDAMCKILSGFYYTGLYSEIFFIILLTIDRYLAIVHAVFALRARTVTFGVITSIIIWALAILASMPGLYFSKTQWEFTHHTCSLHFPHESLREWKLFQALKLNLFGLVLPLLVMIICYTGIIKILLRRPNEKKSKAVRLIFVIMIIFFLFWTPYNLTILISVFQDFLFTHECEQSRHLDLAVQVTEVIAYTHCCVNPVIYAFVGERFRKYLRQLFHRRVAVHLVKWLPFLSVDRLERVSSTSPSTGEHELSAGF
Briefly: ExpresSProfile: C-C chemokine receptor type 1, agonist radioligand. It counts as binding. To be noted: Reference Compound.

NTR1, sequence (P30989 whole entry): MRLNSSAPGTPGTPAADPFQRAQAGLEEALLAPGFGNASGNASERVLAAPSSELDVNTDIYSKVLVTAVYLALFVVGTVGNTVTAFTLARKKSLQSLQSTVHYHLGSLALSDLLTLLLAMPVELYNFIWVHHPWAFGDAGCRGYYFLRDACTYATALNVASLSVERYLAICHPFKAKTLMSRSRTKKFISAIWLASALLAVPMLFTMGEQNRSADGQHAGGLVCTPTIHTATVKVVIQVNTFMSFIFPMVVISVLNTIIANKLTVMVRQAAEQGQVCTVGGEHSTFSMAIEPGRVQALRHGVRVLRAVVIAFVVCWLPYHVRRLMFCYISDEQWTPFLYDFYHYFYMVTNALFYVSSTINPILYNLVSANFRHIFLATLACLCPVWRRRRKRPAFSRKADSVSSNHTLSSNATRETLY

Broadly, the EC50 is the concentration that produces a half-maximal response. The IC50 is the concentration that inhibits the measured activity by half. Read a low IC50 as greater potency. Consider `COc1cccc(OC)c1-c1cc(C(=O)NC2(C(=O)O)C3CC4CC(C3)CC2C4)nn1-c1ccc(C(=O)N(C)CCCN(C)CCCN(C)C(=O)CCCC(=O)NCCCCC(NC(=O)CCC(=O)NCCCOCCOCCOCCCNC(=O)C(CCCCNC(=O)CCC(=O)O[C@@H](C(=O)O[C@H]2C[C@@]3(O)[C@@H](OC(=O)c4ccccc4)[C@@H]4[C@]5(OC(C)=O)CO[C@@H]5C[C@H](O)[C@@]4(C)C(=O)[C@H](OC(C)=O)C(=C2C)C3(C)C)[C@@H](NC(=O)c2ccccc2)c2ccccc2)NC(=O)CCC(=O)NCCCOCCOCCOCCCNC(=O)CCCC(=O)N(C)CCCN(C)CCCN(C)C(=O)c2ccc(-n3nc(C(=O)NC4(C(=O)O)C5CC6CC(C5)CC4C6)cc3-c3c(OC)cccc3OC)c(C(C)C)c2)C(N)=O)cc1C(C)C` (some centres unmarked) [(20), 1206-Glutar-Ttds-Lys(Taxol-Succinyl)-Ttds-(ε-Lys-NH2)-Glutar-1206], for which, on NTR1, the EC50 is over 50000 nM and the midpoint of inhibition, the IC50, lay at 32 nM. Also, the “Concentration [μM] at 20% cytotoxicity” value in the series on HT29 cells was found to be 18 µM.

On to `COc1cccc(OC)c1-c1cc(C(=O)NC2(C(=O)O)C3CC4CC(C3)CC2C4)nn1-c1ccc(C(=O)N(C)CCCN(C)C)cc1C(C)C` (centres unmarked) [SR142948, 2-[(5-(2,6-Dimethoxy-phenyl)-1-{4-[(3-dimethylamino-propyl)-methyl-carbamoyl]-2-isopropyl-phenyl}-1H-pyrazole-3-carbonyl)-amino]-adamantane-2-carboxylic acid], for which the blood-brain barrier crossing entry in series [1] is given as “cross the blood-brain barrier”.

In the case of MIP-1alpha, in the series with CCR1 (h), the “nH Ref” value is reported as 1.1.
